Reference: patent US20240150293A1, “SPIROCYCLOHEXANE DERIVATIVES, PHARMACEUTICAL COMPOSITIONS CONTAINING THEM AND THEIR USES AS ANTI-APOPTOTIC INHIBITORS” (LES LABORATOIRES SERVIER, priority 2021, published 2024)
Like-named read-outs stand apart in the source and are kept apart here.

What was measured:
[1] = system: H929 multiple myeloma tumor line; test: In vitro cytotoxicity, MTT assay (Example B, Method A); format: cell-based; conditions: H929 cells, 48 hours exposure, read-out: C50
Description: The cytotoxicity studies were carried out on the H929 multiple myeloma tumor line.
The cells are distributed onto microplates and exposed to the test compounds for 48 hours. The cell viability is then quantified by a colorimetric assay, the Microculture Tetrazolium Assay (Carmichael et al, Cancer Res. 1987, 47, 939-942).
The results are expressed in C50 which means concentration corresponding to […] of effect/inhibition.

[2] = target: Cy5-labelled Mcl1 (amino acids 171-321) C286S protein (UniProtKB Q07820) (Homo sapiens (Human), UniProt Q07820, C286S); test: Inhibition of Mcl-1 by the fluorescence quenching assay (Example A, Method B); format: binding
Summary of the method: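 Cy5-labelled Mcl1 171-321 C286S (1 nM) quenched by TQ5WS-labelled PUMA peptide (10, 20 or 400 nM); displacement raises fluorescence (Ex 620/Em 680 nm). Buffer 10 mM HEPES, 150 mM NaCl, 0.05% Tween 20, pH 7.4, 5% DMSO; 2 h at room temperature, 11-point curves, IC50 converted to Ki (cKi/eKi).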

Chain of Cy5-labelled Mcl1 (amino acids 171-321) C286S protein (Q07820 171-321 C286S): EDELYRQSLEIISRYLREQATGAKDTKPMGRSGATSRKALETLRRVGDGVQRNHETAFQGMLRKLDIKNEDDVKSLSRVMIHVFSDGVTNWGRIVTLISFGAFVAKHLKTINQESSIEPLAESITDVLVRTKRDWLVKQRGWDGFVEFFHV

## C[C@@H](COc1ccnc2c1[C@H](C)CCC2)C[C@H]1Cc2ccccc2[C@]12CC[C@@](Nc1ccnc(Cl)c1)(C(=O)O)CC2 [Example 714, (1r,2′S,4S)-4-[(2-chloropyridin-4-yl)amino]-2′-[(2R)-2-methyl-3-{[(5R)-5-methyl-5,6,7,8-tetrahydroquinolin-4-yl]oxy}propyl]-2′,3′-dihydrospiro[cyclohexane-1,1′-indene]-4-carboxylic acid]
[1]; Homo sapiens, NCI-H929, 48 h
  IC50: 1.26 µM
[2]
  Ki: 0.00475 µM

## O=C(O)[C@]1(Nc2cccc(Cl)c2)CC[C@@]2(CC1)c1ccccc1CC2CC(COc1ccnc2ccsc12)Cc1ccccc1 (single isomer, unassigned) [Example 562, (1r,4r)-2′-{2-benzyl-3-[(thieno[3,2-b]pyridin-7-yl)oxy]propyl}-4-(3-chloroanilino)-2′,3′-dihydrospiro[cyclohexane-1,1′-indene]-4-carboxylic acid]
[1]
  IC50: 17.8 µM
[2]
  Ki: 0.0809 µM

## C[C@@H](COc1ccnc2c1[C@@H](C)CC[C@H]2C)C[C@H]1Cc2ccccc2[C@]12CC[C@@](Nc1cccc(Cl)c1)(C(=O)O)CC2 (single isomer, unassigned) [Example 658, (1r,2′S,4S)-4-(3-chloroanilino)-2′-[(2R)-3-{[(5R*,8S*)-5,8-dimethyl-5,6,7,8-tetrahydroquinolin-4-yl]oxy}-2-methylpropyl]-2′,3′-dihydrospiro[cyclohexane-1,1′-indene]-4-carboxylic acid]
[1]; Homo sapiens, NCI-H929, 48 h
  IC50: 0.879 µM
[2]
  Ki: 0.0342 µM

## COc1ccc2c(c1)[C@]1(CC[C@@](Nc3cccc(Cl)c3)(C(=O)O)CC1)[C@@H](C[C@@H](C)COc1ccnc3c1[C@@H](C)CCC3)C2 [Example 783, (1r,2′S,4S)-4-(3-chloroanilino)-6′-methoxy-2′-[(2R)-2-methyl-3-{[(5S)-5-methyl-5,6,7,8-tetrahydroquinolin-4-yl]oxy}propyl]-2′,3′-dihydrospiro[cyclohexane-1,1′-indene]-4-carboxylic acid]
[1]; Homo sapiens, NCI-H929, 48 h
  IC50: 0.43 µM
[2]
  Ki: 0.0103 µM

## C[C@@H](COc1ccnc2c1CCC[C@@H]2F)C[C@H]1Cc2ccccc2[C@]12CC[C@@](Nc1cccc(Cl)c1)(C(=O)O)CC2 [Example 680, (1r,2′S,4S)-4-(3-chloroanilino)-2′-[(2R)-3-{[(8S)-8-fluoro-5,6,7,8-tetrahydroquinolin-4-yl]oxy}-2-methylpropyl]-2′,3′-dihydrospiro[cyclohexane-1,1′-indene]-4-carboxylic acid]
[1]; Homo sapiens, NCI-H929, 48 h
  IC50: 0.687 µM
[2]
  Ki: 0.00209 µM

## C[C@@H](COc1ccnc2c1[C@H](C)CCC2)C[C@H]1Cc2ccccc2[C@]12CC[C@@](Nc1cccc(C#N)c1)(C(=O)O)CC2 [Example 716, (1r,2′S,4S)-4-(3-cyanoanilino)-2′-[(2R)-2-methyl-3-{[(5R)-5-methyl-5,6,7,8-tetrahydroquinolin-4-yl]oxy}propyl]-2′,3′-dihydrospiro[cyclohexane-1,1′-indene]-4-carboxylic acid]
[1]; Homo sapiens, NCI-H929, 48 h
  IC50: 0.311 µM
[2]
  Ki: 0.00471 µM

## CC[C@H]1CCCc2nccc(OC[C@H](C)C[C@H]3Cc4ccccc4[C@]34CC[C@@](Nc3cccc(Cl)c3)(C(=O)O)CC4)c21 [Example 656, (1r,2′S,4S)-4-(3-chloroanilino)-2′-[(2R)-3-{[(5S)-5-ethyl-5,6,7,8-tetrahydroquinolin-4-yl]oxy}-2-methylpropyl]-2′,3′-dihydrospiro[cyclohexane-1,1′-indene]-4-carboxylic acid]
[1]; Homo sapiens, NCI-H929, 48 h
  IC50: 2.91 µM
[2]
  Ki: 0.0629 µM

## CC[C@@H](COc1ccncc1)C[C@H]1Cc2ccccc2[C@]12CC[C@@](Nc1cccc(Cl)c1)(C(=O)O)CC2 [Example 544, (1r,2′S,4S)-4-(3-chloroanilino)-2′-[(2R)-2-{[(pyridin-4-yl)oxy]methyl}butyl]-2′,3′-dihydrospiro[cyclohexane-1,1′-indene]-4-carboxylic acid]
[1]; Homo sapiens, NCI-H929, 48 h
  IC50: 8.32 µM
[2]
  Ki: 0.0224 µM

## C[C@@H](COc1ccnc2c1[C@H](C)CCC2)CC1Cc2c(Cl)cccc2[C@]12CC[C@@](Nc1cccc(Cl)c1)(C(=O)O)CC2 (single isomer, unassigned) [Example 741]
[1]
  IC50: 0.132 µM
[2]
  Ki: 0.00158 µM

## C[C@@H](COc1ccnc2c1[C@H](C)CCC2)CC1Cc2c(Cl)c(F)ccc2[C@]12CC[C@@](Nc1cccc(Cl)c1)(C(=O)O)CC2 (single isomer, unassigned) [Example 747]
[1]
  IC50: 0.118 µM
[2]
  Ki: 0.000788 µM

## C[C@@H](COc1ccnc2c1CCC/C2=C\F)C[C@H]1Cc2ccccc2[C@]12CC[C@@](Nc1cccc(Cl)c1)(C(=O)O)CC2 [Example 684, (1r,2′S,4S)-4-(3-chloroanilino)-2′-[(2R)-3-{[(8E)-8-(fluoromethylidene)-5,6,7,8-tetrahydroquinolin-4-yl]oxy}-2-methylpropyl]-2′,3′-dihydrospiro[cyclohexane-1,1′-indene]-4-carboxylic acid]
[1]; Homo sapiens, NCI-H929, 48 h
  IC50: 5.85 µM
[2]
  Ki: 0.0455 µM

## C[C@@H](COc1ccnc2c1[C@H](C)CCC2)C[C@@H]1Cc2cc(Cl)ccc2[C@]12CC[C@@](Nc1cccc(Cl)c1)(C(=O)O)CC2 [Example 779, (1r,2′R,4R)-5′-chloro-4-(3-chloroanilino)-2′-[(2R)-2-methyl-3-{[(5R)-5-methyl-5,6,7,8-tetrahydroquinolin-4-yl]oxy}propyl]-2′,3′-dihydrospiro[cyclohexane-1,1′-indene]-4-carboxylic acid]
[1]; Homo sapiens, NCI-H929, 48 h
  IC50: 0.143 µM
[2]
  Ki: 0.000423 µM

## CC(O)c1ccc2c(c1)[C@]1(CC[C@@](Nc3cccc(Cl)c3)(C(=O)O)CC1)[C@@H](C[C@@H](C)COc1ccnc3c1[C@H](C)CC[C@H]3F)C2 (single isomer, unassigned) [Example 863]
[1]
  IC50: 0.0767 µM
[2]
  Ki: 0.000382 µM

## CC[C@@H]1CC[C@@H](O)c2nccc(OC[C@H](C)C[C@H]3Cc4ccccc4[C@]34CC[C@@](Nc3cccc(Cl)c3)(C(=O)O)CC4)c21 [Example 679, (1r,2′S,4S)-4-(3-chloroanilino)-2′-[(2R)-3-{[(5R,8R)-5-ethyl-8-hydroxy-5,6,7,8-tetrahydroquinolin-4-yl]oxy}-2-methylpropyl]-2′,3′-dihydrospiro[cyclohexane-1,1′-indene]-4-carboxylic acid]
[1]; Homo sapiens, NCI-H929, 48 h
  IC50: 0.199 µM
[2]
  Ki: 0.00232 µM

## C[C@@H](COc1ccnc2c1C(F)CCC2)C[C@H]1Cc2ccccc2[C@]12CC[C@@](Nc1cccc(Cl)c1)(C(=O)O)CC2 (single isomer, unassigned) [Example 685]
[1]
  IC50: 1.46 µM
[2]
  Ki: 0.0058 µM

## CC(O)c1ccc2c(c1)[C@]1(CC[C@@](Nc3cccc(Cl)c3)(C(=O)O)CC1)[C@@H](C[C@@H](C)COc1ccnc3c1[C@H](C)CC[C@H]3C)C2 (stereo partly drawn) [Example 865, (1r,2′S,4S)-4-(3-chloroanilino)-2′-[(2R)-3-{[(5R,8R)-5,8-dimethyl-5,6,7,8-tetrahydroquinolin-4-yl]oxy}-2-methylpropyl]-6′-(1-hydroxyethyl)-2′,3′-dihydrospiro[cyclohexane-1,1′-indene]-4-carboxylic acid]
[1]; Homo sapiens, NCI-H929, 48 h
  IC50: 0.0459 µM
[2]
  Ki: 0.000204 µM

## C[C@@H](COc1ccnc2c1CCCC2C(F)F)C[C@H]1Cc2ccccc2[C@]12CC[C@@](Nc1cccc(Cl)c1)(C(=O)O)CC2 (single isomer, unassigned) [Example 683]
[1]
  IC50: 9.85 µM
[2]
  Ki: 0.106 µM

## C[C@@H](COc1ccnc2c1[C@H](C)CCC2)C[C@H]1Cc2ccccc2[C@]12CC[C@@](Nc1ccc(F)c(Br)c1)(C(=O)O)CC2 [Example 712, (1r,2′S,4S)-4-(3-bromo-4-fluoroanilino)-2′-[(2R)-2-methyl-3-{[(5R)-5-methyl-5,6,7,8-tetrahydroquinolin-4-yl]oxy}propyl]-2′,3′-dihydrospiro[cyclohexane-1,1′-indene]-4-carboxylic acid]
[1]; Homo sapiens, NCI-H929, 48 h
  IC50: 0.074 µM
[2]
  Ki: 0.000439 µM

## CC(=O)c1cc(C)c2c(c1)[C@]1(CC[C@@](Nc3cccc(Cl)c3)(C(=O)O)CC1)C(C[C@@H](C)COc1ccnc3c1[C@H](C)CCC3)=C2 [Example 756, (1r,4R)-6′-acetyl-4-(3-chloroanilino)-4′-methyl-2′-[(2R)-2-methyl-3-{[(5R)-5-methyl-5,6,7,8-tetrahydroquinolin-4-yl]oxy}propyl]spiro[cyclohexane-1,1′-indene]-4-carboxylic acid]
[1]; Homo sapiens, NCI-H929, 48 h
  IC50: 0.062 µM
[2]
  Ki: 0.00101 µM

## Cc1cc(Cl)cc(N[C@]2(C(=O)O)CC[C@]3(CC2)c2ccccc2C[C@@H]3C[C@@H](C)COc2ccnc3c2[C@H](C)CCC3)c1 [Example 710, (1r,2′S,4S)-4-(3-chloro-5-methylanilino)-2′-[(2R)-2-methyl-3-{[(5R)-5-methyl-5,6,7,8-tetrahydroquinolin-4-yl]oxy}propyl]-2′,3′-dihydrospiro[cyclohexane-1,1′-indene]-4-carboxylic acid]
[1]; Homo sapiens, NCI-H929, 48 h
  IC50: 3.28 µM
[2]
  Ki: 0.0441 µM

## C[C@@H](COc1ccnc2ccsc12)C[C@H]1Cc2ccccc2[C@]12CC[C@@](Nc1cccc(Cl)c1)(C(=O)O)CC2 [Example 591, (1r,2′S,4S)-4-(3-chloroanilino)-2′-{(2R)-2-methyl-3-[(thieno[3,2-b]pyridin-7-yl)oxy]propyl}-2′,3′-dihydrospiro[cyclohexane-1,1′-indene]-4-carboxylic acid]
[1]; Homo sapiens, NCI-H929, 48 h
  IC50: 0.438 µM
[2]
  Ki: 0.00272 µM

## C[C@@H](COc1ncnc2c1CCCC2)C[C@H]1Cc2ccccc2[C@]12CC[C@@](Nc1cccc(Cl)c1)(C(=O)O)CC2 [Example 637, (1r,2′S,4S)-4-(3-chloroanilino)-2′-{(2R)-2-methyl-3-[(5,6,7,8-tetrahydroquinazolin-4-yl)oxy]propyl}-2′,3′-dihydrospiro[cyclohexane-1,1′-indene]-4-carboxylic acid]
[1]; Homo sapiens, NCI-H929, 48 h
  IC50: 1.54 µM
[2]
  Ki: 0.00513 µM
